This passage reports AC50 and IC50 results from ChEMBL document CHEMBL1201862, “PubChem BioAssay data set” (2004).

Test [1] can be described thus: inhibition of mouse IRAP aminopeptidase activity – biochemical, Leu-AMC fluorescence, cherry-picked samples, set 2, selectivity assay for ERAP1 modulator project, dose response (AID 743340).
Test [2] is described as follows: intracellular Trypanosoma cruzi inhibitors in host cells – cell-based, plate reader, cherry-pick samples, set 3, dose response (AID 651818).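 Note: compounds incubated with infected cells for about four days.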 It counts as functional.
Test [3] concerns the target Endoplasmic reticulum aminopeptidase 2 (Homo sapiens, UniProt Q6P179). In words: inhibition of ERAP2 arginine-AMC cleavage – biochemical, fluorescence plate reader, cherry-picked, set 2, selectivity assay for selective ERAP1 modulator project, dose response (AID 743320).
Test [4] in a line: inhibitors acting on PAX2 in cells – cell-based, plate reader, dry powder samples, selectivity assay for PAX8 inhibitor project, dose response (AID 743048).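 Note: HEK293 cells carrying a WT1 promoter luciferase reporter driven by expressed Pax2; potency is for inhibition of Pax2 driven reporter signal.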 It is filed as functional.
Test [5] in a line: OV-90 cell viability loss – plate reader, dry powder, SA8, PAX8 inhibitor project, dose response (AID 743149). It is filed as functional, cell-based.
The nature of test [6]: COV434 cell viability loss – plate reader, dry powder, SA7, cytotoxicity control for PAX8 inhibitor project, dose response (AID 743145). It is filed as functional, cell-based.
Test [7] is described as follows: OVCAR-3 cell viability loss – plate reader, dry powder samples, PAX8 inhibitor project, dose response (AID 743044). It is filed as functional, cell-based.
The target in the next test is Paired box protein Pax-8 (Homo sapiens, UniProt Q06710). In words: PAX8 transcriptional activity inhibition in RMG-I – RMG-I cells, luciferase, cherry-pick, dose response (AID 687027).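 Note: luciferase reporter driven by Pax8 target thyroperoxidase promoter measured by SteadyGlo luminescence.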 It is filed as functional, cell-based.
Chain of Paired box protein Pax-8 (Q06710 whole entry): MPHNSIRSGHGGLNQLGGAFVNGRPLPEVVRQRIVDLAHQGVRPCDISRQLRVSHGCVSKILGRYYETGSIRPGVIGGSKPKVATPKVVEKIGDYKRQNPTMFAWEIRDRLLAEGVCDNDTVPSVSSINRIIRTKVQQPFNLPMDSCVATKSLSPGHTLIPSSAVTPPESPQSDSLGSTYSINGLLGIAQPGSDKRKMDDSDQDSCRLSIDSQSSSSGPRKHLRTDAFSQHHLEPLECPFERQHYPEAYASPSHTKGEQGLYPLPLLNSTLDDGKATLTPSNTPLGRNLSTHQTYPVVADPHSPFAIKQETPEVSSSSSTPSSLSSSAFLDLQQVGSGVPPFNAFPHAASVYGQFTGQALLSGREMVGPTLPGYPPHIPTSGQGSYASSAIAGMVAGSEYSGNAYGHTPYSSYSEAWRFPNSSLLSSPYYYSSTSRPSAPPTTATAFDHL
Test [8] in a line: COV362 cell viability loss – plate reader, dry powder, SA12, cytotoxicity control for PAX8 inhibitor project, dose response (AID 743144). It counts as functional, cell-based.
A short description of test [9]: toxicity toward immortalized ovarian surface epithelium – cell-based, plate reader, dry powder samples, cytotoxicity control for PAX8 inhibitor project, dose response (AID 743045). It is filed as functional.
Test [10] is described as follows: PAX5 cellular inhibition readout – cell-based, plate reader, dry powder samples, selectivity assay for PAX8 inhibitor project, dose response (AID 743047).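 Note: HEK293 cells carrying a Pax5 driven CD19 promoter luciferase reporter; potency of inhibitors that lower reporter luminescence.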 It counts as functional.
A short description of test [11]: PAX8-dependent cell viability loss – plate reader, dry powder, dose response (AID 743049). It counts as functional, cell-based.
Test [12] in a line: OVCAR4 cell viability loss – plate reader, dry powder, SA11, cytotoxicity control for PAX8 inhibitor project, dose response (AID 743150). It counts as functional, cell-based. The conditions noted are these: OVCAR-4.
Test [13] can be described thus: IGROV1 cell killing – plate reader, dry powder samples, PAX8 inhibitor project, dose response (AID 743043). It counts as functional, cell-based. The conditions noted are these: IGROV-1.
Test [14] can be described thus: Late stage assay provider results from the probe development effort to identify inhibitors of the Plasmodium falciparum M18 Aspartyl Aminopeptidase (M18AAP): radiolabel-based cell-based dose response assay to identify compounds that inhibit P. falciparum growth in RBCs, Set 2.. It counts as functional.
For test [15], the target named is Potassium channel subfamily K member 9 (Homo sapiens, UniProt Q9NPC2). Briefly: KCNK9 flux blockade, concentration-response – cell-based, FluxOR thallium flux, selectivity assay for TASK1 inhibitor project, SAR follow-up (AID 652211).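 Note: potency is for inhibitors of the channel.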 It counts as functional.
Chain of Potassium channel subfamily K member 9 (Q9NPC2 whole entry): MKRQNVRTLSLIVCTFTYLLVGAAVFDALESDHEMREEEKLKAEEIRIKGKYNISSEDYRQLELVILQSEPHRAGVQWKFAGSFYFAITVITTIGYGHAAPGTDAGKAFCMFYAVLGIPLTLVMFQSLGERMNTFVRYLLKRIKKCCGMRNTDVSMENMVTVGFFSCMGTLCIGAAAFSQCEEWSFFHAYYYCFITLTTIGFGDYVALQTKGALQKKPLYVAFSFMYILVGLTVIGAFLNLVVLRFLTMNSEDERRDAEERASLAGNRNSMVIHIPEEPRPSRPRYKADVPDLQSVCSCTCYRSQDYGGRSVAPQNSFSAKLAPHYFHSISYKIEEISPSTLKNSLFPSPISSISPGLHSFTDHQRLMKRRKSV
Test [16] deals with Potassium channel subfamily K member 3 (Homo sapiens, UniProt O14649). Briefly: inhibition of human KCNK3 channel flux – CHO cells, FluxOR thallium flux, SAR follow-up (AID 652212). It counts as functional.
Chain of Potassium channel subfamily K member 3 (O14649 whole entry): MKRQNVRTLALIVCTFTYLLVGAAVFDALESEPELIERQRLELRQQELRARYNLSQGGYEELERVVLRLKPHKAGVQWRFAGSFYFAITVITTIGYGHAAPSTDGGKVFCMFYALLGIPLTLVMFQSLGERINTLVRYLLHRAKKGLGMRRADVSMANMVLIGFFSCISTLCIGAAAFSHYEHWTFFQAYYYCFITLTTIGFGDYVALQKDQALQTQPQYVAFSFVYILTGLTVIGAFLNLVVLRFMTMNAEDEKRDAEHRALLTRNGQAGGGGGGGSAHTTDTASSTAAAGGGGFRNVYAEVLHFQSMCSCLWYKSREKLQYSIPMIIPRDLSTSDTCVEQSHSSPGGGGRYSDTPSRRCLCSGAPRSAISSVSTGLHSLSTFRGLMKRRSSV
Another test concerns the target Vasopressin V1b receptor (Homo sapiens, UniProt P47901). Briefly: Late-stage results from the probe development effort to identify antagonists of arginine vasopressin receptor 1a (AVPR1a): fluorescence-based cell-based dose response AVPR1b inhibition counterscreen assay. It is filed as functional. On the technique in general: The purpose of a counterscreen is to sort out artefacts and off-target activity.

The nature of test [17]: Late-stage results from the probe development effort to identify antagonists of arginine vasopressin receptor 1a (AVPR1a): fluorescence-based cell-based dose response OXTR inhibition counterscreen assay. It counts as functional.
A short description of test [18]: Late-stage results from the probe development effort to identify antagonists of arginine vasopressin receptor 1a (AVPR1a): fluorescence-based cell-based dose response AVPR1a inhibition assay. It counts as functional.
Another test deals with Vasopressin V2 receptor (Homo sapiens, UniProt P30518). In words: Late-stage results from the probe development effort to identify antagonists of arginine vasopressin receptor 1a (AVPR1a): fluorescence-based cell-based dose response AVPR2 inhibition counterscreen assay. It is filed as functional.
Chain of Vasopressin V2 receptor (P30518 whole entry): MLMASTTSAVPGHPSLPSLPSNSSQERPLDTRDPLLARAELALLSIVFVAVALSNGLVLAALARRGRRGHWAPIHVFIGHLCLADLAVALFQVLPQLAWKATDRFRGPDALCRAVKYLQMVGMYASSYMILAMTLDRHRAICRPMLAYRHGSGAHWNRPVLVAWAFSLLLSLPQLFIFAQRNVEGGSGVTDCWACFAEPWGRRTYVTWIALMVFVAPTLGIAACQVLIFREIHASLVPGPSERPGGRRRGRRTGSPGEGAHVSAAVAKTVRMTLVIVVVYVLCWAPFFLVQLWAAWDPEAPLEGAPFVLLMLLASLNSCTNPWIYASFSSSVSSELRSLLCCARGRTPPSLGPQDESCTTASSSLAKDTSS
Test [19] addresses C-X-C chemokine receptor type 4 (Homo sapiens, UniProt P61073). In words: SAR analysis of small molecule antagonists of the CXCR6 receptor using a CXCR4 receptor luminescent beta-arrestin counterscreen. It is filed as functional.
For test [20], the target named is T1, C-C chemokine receptor type 6 (Homo sapiens, UniProt P51684).
T1 sequence (P51684 whole entry): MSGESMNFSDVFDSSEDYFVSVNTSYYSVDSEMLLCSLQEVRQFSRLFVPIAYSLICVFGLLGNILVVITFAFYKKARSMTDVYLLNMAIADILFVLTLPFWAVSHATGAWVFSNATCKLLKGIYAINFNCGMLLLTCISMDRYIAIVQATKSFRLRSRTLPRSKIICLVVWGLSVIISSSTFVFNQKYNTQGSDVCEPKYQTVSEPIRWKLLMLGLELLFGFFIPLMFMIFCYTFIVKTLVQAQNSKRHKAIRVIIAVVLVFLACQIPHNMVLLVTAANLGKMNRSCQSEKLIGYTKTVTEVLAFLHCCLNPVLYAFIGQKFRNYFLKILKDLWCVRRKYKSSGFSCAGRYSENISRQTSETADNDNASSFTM
Briefly: SAR analysis of small molecule antagonists of the CXCR6 receptor using a CCR6 receptor luminescent beta-arrestin counterscreen. It counts as functional.

A word on the AC50: it is the concentration giving half of the maximal activity seen. In general, IC50 refers to the point on the concentration scale where inhibition reaches its midpoint.

Calls of active or inactive are those of the source.

Chain of Vasopressin V1b receptor (P47901 whole entry): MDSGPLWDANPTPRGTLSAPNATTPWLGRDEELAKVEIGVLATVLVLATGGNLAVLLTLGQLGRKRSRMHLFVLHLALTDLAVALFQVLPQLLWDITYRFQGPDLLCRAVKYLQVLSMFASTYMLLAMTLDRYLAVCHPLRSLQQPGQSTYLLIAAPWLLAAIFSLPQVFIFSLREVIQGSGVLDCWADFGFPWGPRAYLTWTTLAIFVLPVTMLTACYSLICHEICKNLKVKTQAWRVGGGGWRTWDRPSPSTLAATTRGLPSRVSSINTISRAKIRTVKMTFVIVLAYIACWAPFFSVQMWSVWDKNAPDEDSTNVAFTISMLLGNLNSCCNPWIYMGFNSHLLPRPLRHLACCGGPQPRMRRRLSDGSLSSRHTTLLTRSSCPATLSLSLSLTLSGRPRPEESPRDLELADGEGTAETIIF
Chain of C-X-C chemokine receptor type 4 (P61073 whole entry): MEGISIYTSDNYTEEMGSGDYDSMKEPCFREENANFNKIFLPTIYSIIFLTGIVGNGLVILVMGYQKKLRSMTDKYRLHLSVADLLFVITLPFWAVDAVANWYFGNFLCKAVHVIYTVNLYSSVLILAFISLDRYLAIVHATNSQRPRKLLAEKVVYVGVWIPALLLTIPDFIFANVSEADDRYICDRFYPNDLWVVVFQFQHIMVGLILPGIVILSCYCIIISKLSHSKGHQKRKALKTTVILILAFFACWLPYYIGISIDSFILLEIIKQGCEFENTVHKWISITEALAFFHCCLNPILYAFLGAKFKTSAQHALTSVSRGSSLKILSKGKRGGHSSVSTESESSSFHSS
Chain of Endoplasmic reticulum aminopeptidase 2 (Q6P179 whole entry): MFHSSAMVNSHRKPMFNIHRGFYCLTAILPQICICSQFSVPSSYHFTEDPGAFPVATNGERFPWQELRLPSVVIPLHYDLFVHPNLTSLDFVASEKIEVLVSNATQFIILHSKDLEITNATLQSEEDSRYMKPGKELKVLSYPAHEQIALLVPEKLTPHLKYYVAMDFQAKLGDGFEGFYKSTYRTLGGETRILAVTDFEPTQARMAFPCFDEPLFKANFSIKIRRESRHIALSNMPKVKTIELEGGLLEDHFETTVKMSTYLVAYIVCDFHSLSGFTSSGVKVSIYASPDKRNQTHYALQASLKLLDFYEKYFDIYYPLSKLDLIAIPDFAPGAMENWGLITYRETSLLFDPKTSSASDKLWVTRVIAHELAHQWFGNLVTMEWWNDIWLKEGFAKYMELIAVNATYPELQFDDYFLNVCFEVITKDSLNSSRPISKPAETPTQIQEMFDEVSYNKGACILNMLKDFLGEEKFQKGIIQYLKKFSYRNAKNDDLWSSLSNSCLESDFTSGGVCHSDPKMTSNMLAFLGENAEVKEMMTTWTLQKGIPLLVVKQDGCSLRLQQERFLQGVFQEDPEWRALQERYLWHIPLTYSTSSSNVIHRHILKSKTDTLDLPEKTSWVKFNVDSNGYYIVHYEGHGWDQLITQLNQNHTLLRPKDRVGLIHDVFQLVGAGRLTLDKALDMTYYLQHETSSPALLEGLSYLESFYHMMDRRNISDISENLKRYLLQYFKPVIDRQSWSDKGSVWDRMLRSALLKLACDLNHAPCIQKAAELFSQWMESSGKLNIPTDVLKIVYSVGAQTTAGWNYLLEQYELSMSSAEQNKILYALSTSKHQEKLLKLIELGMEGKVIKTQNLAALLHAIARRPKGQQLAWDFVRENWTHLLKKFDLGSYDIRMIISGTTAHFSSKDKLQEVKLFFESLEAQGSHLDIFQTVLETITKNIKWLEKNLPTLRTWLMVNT

Regarding `C[C@H](CO)N1C[C@H](C)[C@@H](CN(C)CC2CC2)Oc2c(NC(=O)Nc3ccc(C(F)(F)F)cc3)cccc2C1=O`, the AC50 was 16.9 µM (active) in test [1], 1.87 µM (active) in [2] and > 22 µM (inactive) in [3].

Take `N#C[C@H]1[C@@H](c2ccc(C#Cc3ccc(F)cc3)cc2)[C@H](CO)N1C(=O)Nc1ccc(F)cc1`: the AC50 in [4] is 14.1 µM (active); in [5] it was 21.1 µM (active); in test [6], 20.5 µM (active); in test [7], 23.5 µM (active); on Paired box protein Pax-8, 12.3 µM (active); in test [8], 19.6 µM (active). Besides, the AC50 was 44.7 µM (active) in test [9]; 14 µM (active) in test [10]; 13.2 µM (active) in [11]; 19.2 µM (active) in [12]; 30.1 µM (active) in test [13].

For `Oc1ccc(CCN2CCc3ccccc3C2)cc1O`, in test [14], the IC50 was 7.9 µM (active).

Consider `Cc1cccc(C(=O)Nc2cccc(NC(=O)c3ccccc3OCC(C)C)c2)c1`, for which the IC50 in [15] is 3.39 µM (active); in test [16] it was 0.206 µM (active).

With `O=C(C1CCN(c2ccccn2)CC1)N(CC1CC1)c1ccc(Cl)cc1`, the IC50 at Vasopressin V1b receptor is 18.9 µM (inactive); in [17], 9.6 µM (active); in test [18], 0.0288 µM (active); at Vasopressin V2 receptor, 28.3 µM (inactive).

As to `COc1cc(C(=O)NC2CC3CCCC(C2)N3CC(=O)Nc2ccc(C)cc2)cc(OC)c1OC` (stereo not drawn), the IC50 in test [19] and in test [20] was > 79 µM (inactive) throughout.
